This is an account of results in US20080038289A1, “Antitumor Agent” (priority 2004, published 2008).

Data set [1] relates to IMC carcinoma tumor cells. Put plainly: IMC solid tumor growth in CDF1 mice, SBS orally (Example 10). The note with it: about 15.6 mg/kg/day orally in peanut oil with 10% ethanol; three weeks after transplantation of IMC. It is filed as in vivo. An excerpt: As ICR mice (Japan SLC, Inc.), 5-week old female mice were purchased, and the animals were used at 6 weeks old. Sarcoma-180 (hereinafter, S-180) tumor cells were transplanted into an abdominal cavity of the ICR mice to give an ascites, and the ascites was passaged by transplanting into other mice every 7 days. An ascites on day 7 after passage was collected, washed with a phosphate buffered saline by centrifugation, and suspended in the same buffer. The number of cells was counted, and the suspension was adjusted to have a density of 5×10^7 cells/mL. Into ICR mice at right abdominal part was subcutaneously transplanted 0.1 mL of the cell suspension, and the size of a solid tumor after 7 days was measured. […] The size of the tumor was measured after four weeks from transplantation of S-180. In addition, as the size of the tumor, a length and a width were measured, to obtain the volume according to the following equation, followed by comparison. […]
The tumor-suppressing activity was calculated according to the following equation. […]
As CDF1 mice (Japan SLC, Inc.), 6-week old female mice were purchased, and the animals were used at 7 weeks olds. […] The number of cells was counted. […] Seven days after transplantation, take of a tumor was confirmed, and the size of a solid tumor was measured. […]

Data set [2] in a line: Toxicity on oral administration to mice. The format is in vivo. The conditions noted are these: orally administered, 25 mg/mouse/day.
Data set [3] relates to HL-60 cells (human leukemia cells). Briefly: Apoptosis induction in HL-60 cells, propidium iodide (Example 9). It is filed as cell-based. The conditions noted are these: 20 μM, incubation for 6 hours; control 9.3. Here is the method:
HL-60 cells (human leukemia cells) were suspended in an RPMI-1640 with 10% fetal bovine serum added thereto, and the number of cells was counted. The suspension was adjusted to have a density of 5×10^5 cells/mL. Each 2 mL of the suspension was dispensed into Petri dishes. SBS prepared in Preparation Example 3 was diluted with dimethyl sulfoxide to 2 mM, and each 20 μL of the suspension was added thereto to have a final concentration of 20 μM. Only dimethyl sulfoxide was added to a control. Incubation was performed for 6 hours under the conditions of 37° C. and 5% CO2, and the cells were recovered, and washed with a phosphate buffered saline (PBS) by centrifugation. Four-percent paraformaldehyde was added to the cells, and the cells were allowed to stand at room temperature for 30 minutes to be fixed. After centrifugation, the supernatant was removed, and a PBS was added thereto, and the mixture was centrifuged and washed, and the cells were suspended in 200 μL of a PBS. Five-hundred microliters of 0.05 mg/mL propidium iodide was added thereto, and the mixture was incubated at 4° C. for 10 minutes. Thereafter, the number of whole cells and the number of cells which had undergone apoptosis were measured, and a ratio of induction of apoptosis was calculated according to the following equation (Table 11). […]

Each structure is given as a SMILES string.

On to `C=CC(C)(O)CC/C=C(\C)CCCC(C)(O)CCCC(C)(O)CCCC(C)(O)CCCC(C)(O)CCCC(C)(O)CCCC(C)(O)CCC=C(C)C` (stereo not shown) [SBS, hypsiziprenol A9], for which, in data set [1], the “Tumor Volume (Mean ± SD)” value is on record as 534.5 ± 92.3 mm^3 and the “Tumor-Suppressing Activity (%)” value worked out at 46.2%. Further, in data set [2], the toxicity entry is given as “toxicity is not observed”. In addition, in data set [3], the “Apoptosis-Inducing Ratio (%)” value stood at 30.1%.
